# Experimental data from paper PMC6934184, “Selective DNA-PKcs inhibition extends the therapeutic index of localized radiotherapy and chemotherapy” (The Journal of Clinical Investigation, 2019).
# Molecular target: T1, STK3 (MST2) (Homo sapiens, UniProt Q13188)
# T1 construct: purchased Thermo Fisher Scientific (Life Technologies) SelectScreen
# Test: SelectScreen Z'LYTE
# Assay type: biochemical
# How it was run: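 NU5455 was profiled across the SelectScreen Broad panel of kinase activity and binding assays. Z'LYTE reactions such as CSF1R ran at apparent Km ATP, while the Adapta CAMK1 assay used ATP listed as 10. Values are given as percent.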
# T1 sequence (Q13188 whole entry): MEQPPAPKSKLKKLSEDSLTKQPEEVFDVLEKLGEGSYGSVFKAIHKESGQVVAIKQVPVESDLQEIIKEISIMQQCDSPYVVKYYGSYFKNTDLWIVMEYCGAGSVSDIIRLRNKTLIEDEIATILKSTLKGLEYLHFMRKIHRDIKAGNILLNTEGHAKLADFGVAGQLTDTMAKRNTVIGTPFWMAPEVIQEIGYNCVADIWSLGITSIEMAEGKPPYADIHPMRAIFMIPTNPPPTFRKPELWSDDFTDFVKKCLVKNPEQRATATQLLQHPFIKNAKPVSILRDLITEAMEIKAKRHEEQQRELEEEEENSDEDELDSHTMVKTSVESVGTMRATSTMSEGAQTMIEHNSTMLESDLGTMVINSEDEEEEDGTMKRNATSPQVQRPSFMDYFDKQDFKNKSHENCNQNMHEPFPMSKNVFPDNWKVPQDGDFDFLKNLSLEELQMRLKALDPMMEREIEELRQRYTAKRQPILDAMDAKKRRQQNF
compound,measurement,value
CN(C(=O)CN1CCOCC1)c1ccc2sc3c(-c4cccc5c(=O)cc(N6CC7CCC(C6)O7)oc45)cccc3c2c1 [NU5455],inhibition at 1 µM,-10.3%
